In patent publication US9566307B2, “Pharmaceutical composition” (priority 2012, dated 2017):
Residues, ends and D or L forms follow the SMILES beside them. *: point of attachment. Cbz = O=C(OCc1ccccc1)*; CH2F = FC*

Tests used:
[1] = system: TE8 tumor indicating a resistivity against CDDP; experiment: In vivo antitumor effect of EV4 type to CDDP resistant tumor, tumor volume; design: species or system nude mouse; settings: CDDP administered group, 125 μg/administration in abdominal cavity on second day; FIG. 10
Description: The tumor refraction performance of EV4 type to a TE8 bearing nude mouse indicating a resistivity against CDDP (also called cisplatin) utilized in chemotherapies for esophageal cancer was examined. A nude mouse was inoculated with TE8 like the fifth example (0th day), and when it was confirmed that the tumor major axis became equal to or greater than 4 mm, CDDP dissolved in a normal saline solution was administered in an abdominal cavity at 125 μg/administration (second day). Note that for a non-treated group, the same amount of normal saline solution was administered. Eight days after the inoculation of TE8, furthermore, an EV4 type solution suspended in OPTI-MEM I of 50 μl was administered in the tumor once per a day and at a total of five times and at 1×10^7 TCID50/administration or 5×10^7 TCID50/administration. For the non-treated group and the CDDP administered group, the same amount of OPTI-MEM I was administered. The evaluation items were the tumor volume and the body weight like the fourth example.

[2] = system: T.Tn (esophageal cancer cell line); experiment: Effects of various inhibitors to cytotoxicity of EV4 type (1), microscope images; format: cell-based, human; settings: EV4 type MOI=0.1, four days after infection, 100 μM Z-VADfmk, 25 μM LY294002, 0.1 μM PD0325901, 1.0 μM bpV, FIG. 2
Description: The inhibitors tested to check the effects to the cytotoxicity of EV4 type were Z-VADfmk (R&D System Corporation) as a pan-caspase inhibitor, LY294002 (Santa Cruz Biotechnology Corporation) as a PI3K inhibitor, PD0325901 (Wako Corporation) as an MEK inhibitor, and bpV (Merck Corporation) as a PTEN inhibitor.
T.Tn was disseminated in a plate with 96 wells at 1×10^4 cells/well, and the plate was left stationary under a condition of 37° C. and 5% CO2. The culture medium in the well was replaced with a culture medium added with each inhibitor so as to be 100 μl/well. As to the concentrations of the respective inhibitors, 100 μM for Z-VADfmk, 25 μM for LY294002, 0.1 μM for PD0325901, and 1.0 μM for bpV. After the culture medium was replaced, the plate was left stationary under a condition of 37° C. and 5% CO2 for one hour. After the culture medium was eliminated, 100 μl of the diluted solution of EV4 type diluted with OPTI-MEM I so as to make EV4 type to be MOI=0.1 was added to each well, and was left stationary under a condition of 37° C. and 5% CO2 for one hour. Next, the diluted solution of EV4 type was eliminated, and the RPMI culture media containing the respective inhibitors were added to respective wells, and were co-cultured. Four days after the start of co-culturing, the image of each well was picked up by an optical microscope. Note that the concentration of each inhibitor was set to be a concentration expected not showing a cytotoxicity to T.Tn.

TE8 cells = experiment: Effect of MEK inhibitor to cytotoxicity of EV4 type (2), Celltilter-Glo living cell quantitation; format: cell-based, human; settings: EV4 type MOI=1.0, PD0325901 50-nM, 48 hours co-culturing, FIG. 3
Description: An effect of an MEK inhibitor PD0325901 to the cytotoxicity of EV4 type was quantitatively examined.
TE8 cells was disseminated in a plate with 96 wells at 1×10^4 cells/well, and the plate was left stationary for six hours under a condition of 37° C. and 5% CO2. The culture medium in the well was replaced with a culture medium containing a DMSO solution of PD0325901 of 50-nM. After the culture medium was replaced, the plate was left stationary for one hour under a condition of 37° C. and 5% CO2. After the culture medium was eliminated, 100 μl of EV4 type diluted solution diluted with OPTI-MEM I so as to have MOI=1.0 was added to each well, and the plate was left stationary for one hour under a condition of 37° C. and 5% CO2. For a control, a diluted solution of 100 μl containing no EV4 type was added. Next, the diluted solution was eliminated, and the culture media containing PD0325901 were added to respective wells, and were co-cultured. 48 hours after the start of co-culturing, living cells were quantitated using a Celltilter-Glo (Registered Trademark) kit of Promega corporation.

HT29 = experiment: Oxaliplatin resistance check, cell survival rate by MTS technique; format: cell-based, human; settings: HT29, oxaliplatin 100 μM, 48 hours; FIG. 17
Description: (§1) In addition, in order to check the oxaliplatin resistance of, among the test-target cells, WiDr and HT29, respective cell survival rates of WiDr and HT29 after cultured for 48 hours in culture media containing oxaliplatin of a predetermined concentration were evaluated through an MTS technique.

WiDr = experiment: as above; format: cell-based, human; settings: oxaliplatin 200 μM, 48 hours, FIG. 17
Description: as §1

Compound	Effect of inhibitor on the cytotoxicity by EV4 type [2]	also measured
[NH2][Pt]([NH2])([Cl])[Cl] [CDDP, cisplatin]		Tumor volume, change with time [1]: suppression of the increase of the tumor volume for eight days, but the increase of the tumor volume was observed thereafter
O=c1cc(N2CCOCC2)oc2c(-c3ccccc3)cccc12 [LY294002]	enhanced	
O=C(NOC[C@H](O)CO)c1ccc(F)c(F)c1Nc1ccc(I)cc1F [PD0325901]	enhanced	Effect of inhibitor on the cytotoxicity of EV4 type (cell survival rate) (TE8 cells): significantly enhanced
COC(=O)C[C@H](NC(=O)[C@H](C)NC(=O)[C@@H](NC(=O)OCc1ccccc1)C(C)C)C(=O)CF [Z-VADfmk] (Cbz-Val-Ala-Asp(OMe)-CH2F)	reduced	
O=C1[O][Pt]2([NH][C@@H]3CCCC[C@H]3[NH]2)[O]C1=O [oxaliplatin]		Cell survival rate (HT29): maintained the similar level of cell survival rate to those of the control group; Cell survival rate (WiDr): maintained the similar level of cell survival rate to those of the control group
bpV	reduced	
